As usually defined, the MIC is the smallest concentration in the dilution series that meets the test's criterion for growth inhibition.

The text below walks through data of ChEMBL document CHEMBL1123701, “Synthesis and quantitative structure-activity relationship analysis of N-triiodoallyl- and N-iodopropargylazoles. New antifungal agents” (1987).

Values after ≈ are worked out from the molar mass of the structure shown.

One experiment concerns Cryptococcus neoformans. The experiment can be described thus: Antifungal activity against Cryptococcus neoformans Cr-1 strain. In kind it is functional.
Another experiment has as its system Aspergillus fumigatus. In words: Antifungal activity against Aspergillus fumigatus Saito strain. Type of experiment: functional.
In the next experiment the test system is Trichophyton benhamiae. In words: Antifungal activity towards Trichophyton mentagrophytes 530324 strain. In kind it is functional, Arthroderma benhamiae.
The next experiment deals with Candida albicans. The experiment can be described thus: Antifungal activity against Candida albicans C-A-24 strain. Type of experiment: functional.
Experiment [1] concerns Trichophyton interdigitale. The experiment can be described thus: Antifungal activity towards Trichophyton interdigitale. In kind it is functional.

For the molecule `CCOCCc1nnn(CC(I)=C(I)I)n1`, the minimal inhibitory concentration (MIC) was found to be 1.56 µg/mL (≈ 2.79 µM) in the experiment with Cryptococcus neoformans; 0.78 µg/mL (≈ 1.39 µM) against Aspergillus fumigatus; 0.2 µg/mL (≈ 0.357 µM) in the experiment on Trichophyton benhamiae; 3.13 µg/mL (≈ 5.59 µM) in the experiment on Candida albicans; 0.39 µg/mL (≈ 0.697 µM) in experiment [1].
In the case of `O=[N+]([O-])c1c(Cl)cccc1-c1cn(CC#CI)cc1Cl`, the minimum inhibitory concentration (MIC) with Cryptococcus neoformans was 25 µg/mL (≈ 59.4 µM); in the experiment on Aspergillus fumigatus it was 12.5 µg/mL (≈ 29.7 µM); in the experiment with Trichophyton benhamiae it was 6.25 µg/mL (≈ 14.8 µM); with Candida albicans, 25 µg/mL (≈ 59.4 µM); in experiment [1], 6.25 µg/mL (≈ 14.8 µM).
`O=[N+]([O-])c1ccn(CC#CI)c1`: the MIC in the experiment with Cryptococcus neoformans was determined as 0.1 µg/mL (≈ 0.362 µM); in the experiment with Aspergillus fumigatus, 0.1 µg/mL (≈ 0.362 µM); in the experiment with Trichophyton benhamiae, 0.2 µg/mL (≈ 0.725 µM); against Candida albicans it was 0.78 µg/mL (≈ 2.83 µM); in experiment [1], 0.78 µg/mL (≈ 2.83 µM).
Turning to `O=C(O)c1ccc(-c2nnn(CC#CI)n2)cc1`, the minimum inhibitory concentration (MIC) was 100 µg/mL (≈ 282 µM) in the experiment with Cryptococcus neoformans; over 100 µg/mL against Aspergillus fumigatus; 25 µg/mL (≈ 70.6 µM) in the experiment with Trichophyton benhamiae; over 100 µg/mL in the experiment with Candida albicans; 6.25 µg/mL (≈ 17.7 µM) in experiment [1].
Take `IC#CCn1ncnn1`: the minimal inhibitory concentration (MIC) against Cryptococcus neoformans amounted to 0.39 µg/mL (≈ 1.67 µM); in the experiment on Aspergillus fumigatus, 0.39 µg/mL (≈ 1.67 µM); in the experiment with Trichophyton benhamiae, 0.78 µg/mL (≈ 3.33 µM); against Candida albicans it was 1.56 µg/mL (≈ 6.67 µM); in experiment [1] it was 0.78 µg/mL (≈ 3.33 µM).
As for `COc1ccc(-c2nnnn2CC#CI)cc1`, the minimal inhibitory concentration (MIC) amounted to 25 µg/mL (≈ 73.5 µM) in the experiment with Cryptococcus neoformans; 0.78 µg/mL (≈ 2.29 µM) in the experiment on Aspergillus fumigatus; 0.1 µg/mL (≈ 0.294 µM) with Trichophyton benhamiae; 25 µg/mL (≈ 73.5 µM) against Candida albicans; 0.2 µg/mL (≈ 0.588 µM) in experiment [1].
`O=[N+]([O-])c1cn(CC#CI)cn1`: the minimum inhibitory concentration (MIC) in the experiment on Cryptococcus neoformans was 0.1 µg/mL (≈ 0.361 µM); in the experiment on Aspergillus fumigatus, 0.78 µg/mL (≈ 2.82 µM); in the experiment on Trichophyton benhamiae, 0.2 µg/mL (≈ 0.722 µM); with Candida albicans, 6.25 µg/mL (≈ 22.6 µM); in experiment [1], 0.78 µg/mL (≈ 2.82 µM).
As to `IC#CCn1cncn1`, the MIC against Cryptococcus neoformans is 0.78 µg/mL (≈ 3.35 µM); against Aspergillus fumigatus, 0.39 µg/mL (≈ 1.67 µM); with Trichophyton benhamiae it was 0.78 µg/mL (≈ 3.35 µM); in the experiment on Candida albicans, 3.13 µg/mL (≈ 13.4 µM); in experiment [1], 0.78 µg/mL (≈ 3.35 µM).
Take `IC(I)=C(I)Cn1nnnc1C1CC1`: the MIC against Cryptococcus neoformans was over 25 µg/mL; against Aspergillus fumigatus, 1.56 µg/mL (≈ 2.96 µM); in the experiment with Trichophyton benhamiae, 0.78 µg/mL (≈ 1.48 µM); against Candida albicans, 25 µg/mL (≈ 47.4 µM); in experiment [1] it was 1.56 µg/mL (≈ 2.96 µM).
As to `COC(=O)c1cccn1CC(I)=C(I)I`, the minimal inhibitory concentration (MIC) is 3.13 µg/mL (≈ 5.77 µM) in the experiment on Cryptococcus neoformans; 3.13 µg/mL (≈ 5.77 µM) against Aspergillus fumigatus; 0.78 µg/mL (≈ 1.44 µM) in the experiment on Trichophyton benhamiae; 1.56 µg/mL (≈ 2.87 µM) in the experiment with Candida albicans; 0.39 µg/mL (≈ 0.718 µM) in experiment [1].
Regarding `CC(C)c1nnnn1CC#CI`, the minimal inhibitory concentration (MIC) with Cryptococcus neoformans was found to be 25 µg/mL (≈ 90.6 µM); in the experiment with Aspergillus fumigatus, 6.25 µg/mL (≈ 22.6 µM); in the experiment on Trichophyton benhamiae, 3.13 µg/mL (≈ 11.3 µM); against Candida albicans, 12.5 µg/mL (≈ 45.3 µM); in experiment [1], 1.56 µg/mL (≈ 5.65 µM).
The like results for `IC#CCn1nnc(Cc2ccccc2)n1` were, in that order, 6.25 µg/mL (≈ 19.3 µM), 0.78 µg/mL (≈ 2.41 µM), 0.1 µg/mL (≈ 0.309 µM), 6.25 µg/mL (≈ 19.3 µM) and 0.1 µg/mL (≈ 0.309 µM).
`IC(I)=C(I)Cn1cncn1`: the MIC in the experiment with Cryptococcus neoformans turned out to be 6.25 µg/mL (≈ 12.8 µM); against Aspergillus fumigatus, 0.2 µg/mL (≈ 0.411 µM); in the experiment on Trichophyton benhamiae, 0.78 µg/mL (≈ 1.6 µM); against Candida albicans, 1.56 µg/mL (≈ 3.2 µM); in experiment [1], 0.39 µg/mL (≈ 0.801 µM).
The matching figures for `O=[N+]([O-])c1ccc(-c2nnn(CC(I)=C(I)I)n2)cc1`: over 100 µg/mL, over 100 µg/mL, over 100 µg/mL, over 100 µg/mL and over 100 µg/mL.
As to `COc1ccc(-c2nnnn2CC(I)=C(I)I)cc1`, the MIC was determined as 0.78 µg/mL (≈ 1.31 µM) against Cryptococcus neoformans; 0.78 µg/mL (≈ 1.31 µM) with Aspergillus fumigatus; 0.1 µg/mL (≈ 0.168 µM) with Trichophyton benhamiae; 6.25 µg/mL (≈ 10.5 µM) in the experiment on Candida albicans; 0.39 µg/mL (≈ 0.657 µM) in experiment [1].
Consider `IC(I)=C(I)Cn1nccn1`, for which the MIC in the experiment with Cryptococcus neoformans stood at 1.56 µg/mL (≈ 3.2 µM); against Aspergillus fumigatus, 0.39 µg/mL (≈ 0.801 µM); in the experiment with Trichophyton benhamiae, 0.2 µg/mL (≈ 0.411 µM); with Candida albicans, 0.78 µg/mL (≈ 1.6 µM); in experiment [1] it was 0.39 µg/mL (≈ 0.801 µM).
With `O=[N+]([O-])c1c(Cl)cccc1-c1cn(CC(I)=C(I)I)cc1Cl`, the MIC in the experiment on Cryptococcus neoformans is 12.5 µg/mL (≈ 18.5 µM); in the experiment with Aspergillus fumigatus, 12.5 µg/mL (≈ 18.5 µM); against Trichophyton benhamiae, 3.13 µg/mL (≈ 4.64 µM); with Candida albicans, 12.5 µg/mL (≈ 18.5 µM); in experiment [1] it was 6.25 µg/mL (≈ 9.26 µM).
For the molecule `IC#CCn1nnnc1Cc1ccccc1`, the minimum inhibitory concentration (MIC) against Cryptococcus neoformans was 12.5 µg/mL (≈ 38.6 µM); against Aspergillus fumigatus it was 1.56 µg/mL (≈ 4.81 µM); with Trichophyton benhamiae, 0.78 µg/mL (≈ 2.41 µM); against Candida albicans, 12.5 µg/mL (≈ 38.6 µM); in experiment [1], 0.39 µg/mL (≈ 1.2 µM).
As to `COC(=O)c1cc([N+](=O)[O-])cn1CC(I)=C(I)I`, the MIC turned out to be 3.13 µg/mL (≈ 5.32 µM) against Cryptococcus neoformans; 1.56 µg/mL (≈ 2.65 µM) in the experiment on Aspergillus fumigatus; 0.39 µg/mL (≈ 0.663 µM) with Trichophyton benhamiae; 3.13 µg/mL (≈ 5.32 µM) against Candida albicans; 0.39 µg/mL (≈ 0.663 µM) in experiment [1].
`IC(I)=C(I)Cn1nnc(C2CC2)n1`: the MIC was determined as 3.13 µg/mL (≈ 5.93 µM) with Cryptococcus neoformans; 0.39 µg/mL (≈ 0.739 µM) with Aspergillus fumigatus; 0.2 µg/mL (≈ 0.379 µM) against Trichophyton benhamiae; 3.13 µg/mL (≈ 5.93 µM) against Candida albicans; 0.2 µg/mL (≈ 0.379 µM) in experiment [1].
As to `CCOCCc1nnnn1CC(I)=C(I)I`, the MIC in the experiment with Cryptococcus neoformans is 6.25 µg/mL (≈ 11.2 µM); in the experiment on Aspergillus fumigatus, 3.13 µg/mL (≈ 5.59 µM); against Trichophyton benhamiae it was 0.1 µg/mL (≈ 0.179 µM); against Candida albicans, 6.25 µg/mL (≈ 11.2 µM); in experiment [1], 1.56 µg/mL (≈ 2.79 µM).
On to `CCCCCc1nnnn1CC#CI`, for which the MIC turned out to be 3.13 µg/mL (≈ 10.3 µM) against Cryptococcus neoformans; 0.39 µg/mL (≈ 1.28 µM) with Aspergillus fumigatus; 0.2 µg/mL (≈ 0.658 µM) against Trichophyton benhamiae; 3.13 µg/mL (≈ 10.3 µM) against Candida albicans; 0.1 µg/mL (≈ 0.329 µM) in experiment [1].
Take `IC(I)=C(I)Cn1ccnn1`: the MIC was 6.25 µg/mL (≈ 12.8 µM) against Cryptococcus neoformans; 0.78 µg/mL (≈ 1.6 µM) with Aspergillus fumigatus; 0.39 µg/mL (≈ 0.801 µM) in the experiment on Trichophyton benhamiae; 3.13 µg/mL (≈ 6.43 µM) against Candida albicans; 0.78 µg/mL (≈ 1.6 µM) in experiment [1].
